Source: patent US20230416298A1, “PRODRUGS OF NEUROACTIVE STEROIDS” (Brii Biosciences, Inc., priority 2020, published 2023)

Tests used:
Plasma stability = assay type: in vitro ADME; conditions: 37° C.; for Stability in Human Plasma Formation of parent compound: 2 μM, Yes/No; for half-life at 2 μM: pooled plasma, pH 7.4, human plasma, time points 0, 10, 30, 60 and 120 min
Experimental: The pooled frozen plasma was thawed in a water bath at 37° C. prior to experiment. Plasma was centrifuged at 4000 rpm for 5 min and the clots were removed if any. The pH will be adjusted to 7.4±0.1 if required.
Preparation of test compounds and positive control (propantheline bromide): 1 mM intermediate solution was prepared by diluting 10 μL of the stock solution with 90 μL MeOH; 1 mM intermediate of positive control Propantheline was prepared by diluting 10 μL of the stock solution with 90 μL ultrapure water. 100 μM dosing solution was prepared by diluting 20 μL of the intermediate solution (1 mM) with 180 μL MeOH. 98 μL of blank plasma was spiked with 2 μL of dosing solution (100 μM) to achieve 2 μM of the final concentration in duplicate and samples were incubated at 37° C. in a water bath. At each time point (0,10, 30, 60 and 120 min), 400 μL of stop solution (0.1% FA in MeOH containing 200 ng/mL tolbutamide and 200 ng/mL Labetalol) was added to precipitate protein and mixed thoroughly. Centrifuged sample plates at 4,000 rpm for 10 min. An aliquot of supernatant (100 μL) was transferred from each well to another plates.
Data analysis: The % remaining of test compound after incubation in plasma was calculated using following equation:
% Remaining=[…]×(PAR at appointed incubation time/PAR at T0 time)
where PAR is the peak area ratio of analyte versus internal standard (IS) (LC/MS/MS mobile phase condition: 0.1% Formic Acid in Water/0.1% Formic Acid in Acetonitrile. The appointed incubation time points are TO (0 min), Tn (n=0, 10, 30, 60, 120 min).

Liver S9 stability = assay type: in vitro ADME; conditions: human liver S9, 37° C.; for half-life at 1 μM: time points up to 60 min; for Stability in Human Liver S9 Formation of parent compound: Yes/No
Experimental: Intermediate solution: Dilute 5 μL of compounds or controls (7-ethoxycoumarin) from stock solution (10 mM) with 495 μL MeOH (Conc.: 100 μM, 1% DMSO, 99% MeOH). Stop solution: Cold ACN (including 100 ng/mL Tolbutamide and Labetalol as internal standard). Add 2 μL test compound or control working solution/well to all plates (T0, T5, T10, T20, T30, T60, NCF60) except matrix blank. Add 600 μL/well stop solution (cold in 4° C., including 100 ng/mL Tolbutamide/100 ng/mL Labetalol) to terminate the TO plate, then put it on ice. Dispense 840 μL/well S9 solution to 96-well plate as reservoir according to plate map. Then add 100 μL/well to every plate by Apricot. Incubate S9 solution and compound at 37° C. for about 10 min except NCF60 and TO. After adding S9 solution and 98 μ LPB buffer to NCF60, incubate at 37° C. without pre-warming, start timer 1. After 60 min, add 600 μL/well stop solution to terminate the reaction. After pre-warming, dispense 760 μL/well cofactor solution to 96-well plate as reservoir according to plate map. Then add 98 μL/well to every plate by Apricot to start reaction. Incubate at 37° C., start timer 2, Add 600 μL/well stop solution (cold in 4° C., including 100 ng/mL Tolbutamide and Labetalol) to terminate the reaction. Samples are centrifuged at 4000 rpm for 20 min. While centrifuging, load 8×new 96-well plate with 300 μL HPLC water, then transfer 100 μL supernatant, mix with water for LC/MS/MS, transferred to Bioanalytical Services for LC-MS/MS analysis. Use equation of first order kinetics to calculate t1/2 and CL: Equation of first order kinetics: […]

SMILES: CCCCCC(=O)O[C@@H]1CC[C@@]2(C)[C@@H](CC[C@@H]3[C@@H]2CC[C@]2(C)[C@@H](C(C)=O)CC[C@@H]32)C1 [Example 1, [(3R,5S,8R,9S,10S,13S,14S,17S)-17-acetyl-10,13-dimethyl-2,3,4,5,6,7,8,9,11,12,14,15,16,17-tetradecahydro-1H-cyclopenta[a]phenanthren-3-yl]hexanoate]
- Stability in Human Plasma Formation of parent compound (Plasma stability): No
- half-life at 2 μM (Plasma stability): > 200 min
- half-life at 1 μM (Liver S9 stability): < 50 min
- Stability in Human Liver S9 Formation of parent compound (Liver S9 stability): No

SMILES: CCCCCCC(=O)O[C@@H]1CC[C@@]2(C)[C@@H](CC[C@@H]3[C@@H]2CC[C@]2(C)[C@@H](C(C)=O)CC[C@@H]32)C1 [Example 2, [(3R,5S,8R,9S,10S,13S,14S,17S)-17-acetyl-10,13-dimethyl-2,3,4,5,6,7,8,9,11,12,14,15,16,17-tetradecahydro-1H-cyclopenta[a]phenanthren-3-yl]heptanoate]
- Stability in Human Plasma Formation of parent compound (Plasma stability): No
- half-life at 2 μM (Plasma stability): > 200 min
- half-life at 1 μM (Liver S9 stability): < 50 min
- Stability in Human Liver S9 Formation of parent compound (Liver S9 stability): No

SMILES: CC(=O)[C@H]1CC[C@H]2[C@@H]3CC[C@H]4C[C@H](OC(=O)CC5CCCC5)CC[C@]4(C)[C@H]3CC[C@]12C [Example 8, [(3R,5S,8R,9S,10S,13S,14S,17S)-17-acetyl-10,13-dimethyl-2,3,4,5,6,7,8,9,11,12,14,15,16,17-tetradecahydro-1H-cyclopenta[a]phenanthren-3-yl] 3-cyclopentylacetate]
- Stability in Human Plasma Formation of parent compound (Plasma stability): No
- half-life at 2 μM (Plasma stability): > 200 min
- half-life at 1 μM (Liver S9 stability): < 50 min
- Stability in Human Liver S9 Formation of parent compound (Liver S9 stability): No

SMILES: CC(=O)OCCCC(=O)O[C@@H]1CC[C@@]2(C)[C@@H](CC[C@@H]3[C@@H]2CC[C@]2(C)[C@@H](C(C)=O)CC[C@@H]32)C1 [Example 14, [(3R,5S,8R,9S,10S,13S,14S,17S)-17-acetyl-10,13-dimethyl-2,3,4,5,6,7,8,9,11,12,14,15,16,17-tetradecahydro-1H-cyclopenta[a]phenanthren-3-yl]4-acetoxybutanoate]
- Stability in Human Plasma Formation of parent compound (Plasma stability): No
- half-life at 2 μM (Plasma stability): 50 to 200 min
- half-life at 1 μM (Liver S9 stability): < 50 min
- Stability in Human Liver S9 Formation of parent compound (Liver S9 stability): No

SMILES: CC(=O)[C@H]1CC[C@H]2[C@@H]3CC[C@H]4C[C@H](OC(=O)CCCOC(=O)C(C)C)CC[C@]4(C)[C@H]3CC[C@]12C [Example 15, [(3R,5S,8R,9S,10S,13S,14S,17S)-17-acetyl-10,13-dimethyl-2,3,4,5,6,7,8,9,11,12,14,15,16,17-tetradecahydro-1H-cyclopenta[a]phenanthren-3-yl]4-(2-methylpropanoyloxy)butanoate]
- Stability in Human Plasma Formation of parent compound (Plasma stability): No
- half-life at 2 μM (Plasma stability): 50 to 200 min
- half-life at 1 μM (Liver S9 stability): < 50 min
- Stability in Human Liver S9 Formation of parent compound (Liver S9 stability): No

SMILES: CC(=O)OCCCCC(=O)O[C@@H]1CC[C@@]2(C)[C@@H](CC[C@@H]3[C@@H]2CC[C@]2(C)[C@@H](C(C)=O)CC[C@@H]32)C1 [Example 16, [(3R,5S,8R,9S,10S,13S,14S,17S)-17-acetyl-10,13-dimethyl-2,3,4,5,6,7,8,9,11,12,14,15,16,17-tetradecahydro-1H-cyclopenta[a]phenanthren-3-yl] 5-acetoxypentanoate]
- Stability in Human Plasma Formation of parent compound (Plasma stability): No
- half-life at 2 μM (Plasma stability): 50 to 200 min
- half-life at 1 μM (Liver S9 stability): < 50 min
- Stability in Human Liver S9 Formation of parent compound (Liver S9 stability): No

SMILES: CC(=O)OCCCC(C)C(=O)O[C@@H]1CC[C@@]2(C)[C@@H](CC[C@@H]3[C@@H]2CC[C@]2(C)[C@@H](C(C)=O)CC[C@@H]32)C1 (stereo partly drawn) [Example 17, [(3R,5S,8R,9S,10S,13S,14S,17S)-17-acetyl-10,13-dimethyl-2,3,4,5,6,7,8,9,11,12,14,15,16,17-tetradecahydro-1H-cyclopenta[a]phenanthren-3-yl]5-acetoxy-2-methyl-pentanoate]
- Stability in Human Plasma Formation of parent compound (Plasma stability): No
- half-life at 2 μM (Plasma stability): 50 to 200 min
- half-life at 1 μM (Liver S9 stability): < 50 min
- Stability in Human Liver S9 Formation of parent compound (Liver S9 stability): No

SMILES: CC(=O)[C@H]1CC[C@H]2[C@@H]3CC[C@H]4C[C@H](OC(=O)OCCOC(=O)C(C)C)CC[C@]4(C)[C@H]3CC[C@]12C [Example 19, 2-[[(3R,5S,8R,9S,10S,13S,14S,17S)-17-acetyl-10,13-dimethyl-2,3,4,5,6,7,8,9,11,12,14,15,16,17-tetradecahydro-1H-cyclopenta[a]phenanthren-3-yl]oxycarbonyloxy]ethyl 2-methylpropanoate]
- Stability in Human Plasma Formation of parent compound (Plasma stability): No
- half-life at 2 μM (Plasma stability): 50 to 200 min
- half-life at 1 μM (Liver S9 stability): < 50 min
- Stability in Human Liver S9 Formation of parent compound (Liver S9 stability): Yes

SMILES: CC(=O)[C@H]1CC[C@H]2[C@@H]3CC[C@H]4C[C@H](OC(=O)OCc5oc(=O)oc5C)CC[C@]4(C)[C@H]3CC[C@]12C [Example 20, [(3R,5S,8R,9S,10S,13S,14S,17S)-17-acetyl-10,13-dimethyl-2,3,4,5,6,7,8,9,11,12,14,15,16,17-tetradecahydro-1H-cyclopenta[a]phenanthren-3-yl](5-methyl-2-oxo-1,3-dioxol-4-yl)methyl carbonate]
- Stability in Human Plasma Formation of parent compound (Plasma stability): Yes
- half-life at 2 μM (Plasma stability): < 50 min
- half-life at 1 μM (Liver S9 stability): < 50 min
- Stability in Human Liver S9 Formation of parent compound (Liver S9 stability): Yes

SMILES: CCCCOC(=O)O[C@@H]1CC[C@@]2(C)[C@@H](CC[C@@H]3[C@@H]2CC[C@]2(C)[C@@H](C(C)=O)CC[C@@H]32)C1 [Example 21, [(3R,5S,8R,9S,10S,13S,14S,17S)-17-acetyl-10,13-dimethyl-2,3,4,5,6,7,8,9,11,12,14,15,16,17-tetradecahydro-1H-cyclopenta[a]phenanthren-3-yl]butyl carbonate]
- Stability in Human Plasma Formation of parent compound (Plasma stability): No
- half-life at 2 μM (Plasma stability): > 200 min
- half-life at 1 μM (Liver S9 stability): < 50 min
- Stability in Human Liver S9 Formation of parent compound (Liver S9 stability): Yes

SMILES: CC(=O)[C@H]1CC[C@H]2[C@@H]3CC[C@H]4C[C@H](OC(=O)NCCOC(=O)C(C)C)CC[C@]4(C)[C@H]3CC[C@]12C [Example 22, 2-[[(3R,5S,8R,9S,10S,13S,14S,17S)-17-acetyl-10,13-dimethyl-2,3,4,5,6,7,8,9,11,12,14,15,16,17-tetradecahydro-1H-cyclopenta[a]phenanthren-3-yl]oxycarbonylamino]ethyl 2-methylpropanoate]
- Stability in Human Plasma Formation of parent compound (Plasma stability): No
- half-life at 2 μM (Plasma stability): > 200 min
- half-life at 1 μM (Liver S9 stability): < 50 min
- Stability in Human Liver S9 Formation of parent compound (Liver S9 stability): Yes

SMILES: CC(=O)[C@H]1CC[C@H]2[C@@H]3CC[C@H]4C[C@H](OC(=O)N(C)CCOC(=O)C(C)C)CC[C@]4(C)[C@H]3CC[C@]12C [Example 23, 2-[[(3R,5S,8R,9S,10S,13S,14S,17S)-17-acetyl-10,13-dimethyl-2,3,4,5,6,7,8,9,11,12,14,15,16,17-tetradecahydro-1H-cyclopenta[a]phenanthren-3-yl]oxycarbonyl-methyl-amino]ethyl 2-methylpropanoate]
- Stability in Human Plasma Formation of parent compound (Plasma stability): No
- half-life at 2 μM (Plasma stability): 50 to 200 min
- half-life at 1 μM (Liver S9 stability): < 50 min
- Stability in Human Liver S9 Formation of parent compound (Liver S9 stability): Yes

SMILES: CC(=O)[C@H]1CC[C@H]2[C@@H]3CC[C@H]4C[C@H](OC(=O)OCCNC(=O)C(C)C)CC[C@]4(C)[C@H]3CC[C@]12C [Example 24, [(3R,5S,8R,9S,10S,13S,14S,17S)-17-acetyl-10,13-dimethyl-2,3,4,5,6,7,8,9,11,12,14,15,16,17-tetradecahydro-1H-cyclopenta[a]phenanthren-3-yl] 2-(2-methylpropanoylamino)ethyl carbonate)]
- Stability in Human Plasma Formation of parent compound (Plasma stability): No
- half-life at 2 μM (Plasma stability): > 200 min
- half-life at 1 μM (Liver S9 stability): < 50 min
- Stability in Human Liver S9 Formation of parent compound (Liver S9 stability): No
